Test results published in patent publication US20090280106A1, “Pituitary adenylate cyclase acivating peptide (pacap) receptor (vpac2) agonists and their pharmacological methods of use” (Bayer Pharmaceuticals Corporation, priority 2005, published 2009).

What was measured:
DPPIV [1] = biological target: T1, DPPIV (Homo sapiens, UniProt P27487); settings: cited from earlier work
DPPIV [2] = biological target: T1, DPPIV; settings: longer time points
Description: The formulations described in Example 4 are placed in constant stability chamber. Peptides are also analyzed for stability to degradation in solutions of DPPIV and in plasma. Samples are removed periodically for analysis by capillary electrophoresis, mass spectrometry, Edman degradation, ELISA, and assays of peptide activity, which are sensitive methods to detect degradation of peptide. The area of various peaks is summed and the area for peak of the parent peptide is divided by the total peak area. The quotient is the % purity. Since there are impurities present in the fresh peptide, the purity change is normalized by dividing the purity at different time point by the initial purity. For stability to DPPIV and plasma, peptides at 20 pmol/μl were incubated at 37° C. in the presence of 300 pM DPPIV in 100 mM HEPES, pH 7.4. At various timepoints, the reaction (2 μl aliquot) is terminated by addition of 1 μM DPPIV inhibitor and freezing. For MALDI mass spectrometric analysis, T=0 hr, 1 hr, 5 hr, and 24 hr timepoints are evaluated. The results are plotted as percent intact peptide or peptide derivative as compared to degradation products.

T1 sequence (P27487 whole entry, species assumed): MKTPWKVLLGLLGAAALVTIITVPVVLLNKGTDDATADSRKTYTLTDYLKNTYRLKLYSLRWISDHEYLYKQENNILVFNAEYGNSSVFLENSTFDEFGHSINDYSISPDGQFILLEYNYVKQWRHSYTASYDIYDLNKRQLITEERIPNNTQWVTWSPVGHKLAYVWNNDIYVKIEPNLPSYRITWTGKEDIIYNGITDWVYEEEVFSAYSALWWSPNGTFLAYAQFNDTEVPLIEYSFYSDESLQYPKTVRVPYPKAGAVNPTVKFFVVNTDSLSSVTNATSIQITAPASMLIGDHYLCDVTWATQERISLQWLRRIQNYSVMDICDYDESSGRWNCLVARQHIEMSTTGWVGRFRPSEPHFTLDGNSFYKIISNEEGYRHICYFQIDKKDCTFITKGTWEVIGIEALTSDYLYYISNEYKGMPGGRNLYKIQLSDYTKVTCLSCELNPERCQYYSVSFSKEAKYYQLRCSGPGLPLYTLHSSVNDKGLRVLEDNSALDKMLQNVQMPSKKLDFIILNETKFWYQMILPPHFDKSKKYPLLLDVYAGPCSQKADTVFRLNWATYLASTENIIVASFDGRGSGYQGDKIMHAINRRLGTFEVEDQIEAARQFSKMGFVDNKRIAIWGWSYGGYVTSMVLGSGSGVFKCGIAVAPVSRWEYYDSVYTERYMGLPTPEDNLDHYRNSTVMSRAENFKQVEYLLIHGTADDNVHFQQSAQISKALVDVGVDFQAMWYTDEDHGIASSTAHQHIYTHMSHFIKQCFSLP

| SMILES | cleavage by DPPIV as reported (Zhu, et al., J. Biol. Chem. 278: 22418-22423, 2003) (DPPIV [1]) | cleavage by DPPIV (DPPIV [2]) |
| --- | --- | --- |
| CC[C@H](C)[C@H](NC(=O)CNC(=O)[C@H](CC(=O)O)NC(=O)[C@H](CO)NC(=O)[C@@H](N)Cc1cnc[nH]1)C(=O)N[C@@H](Cc1ccccc1)C(=O)N[C@H](C(=O)N[C@@H](CC(=O)O)C(=O)N[C@@H](CO)C(=O)N[C@@H](Cc1ccc(O)cc1)C(=O)N[C@@H](CO)C(=O)N[C@@H](CCCNC(=N)N)C(=O)N[C@@H](Cc1ccc(O)cc1)C(=O)N[C@@H](CCCNC(=N)N)C(=O)N[C@@H](CCCCN)C(=O)N[C@@H](CCC(N)=O)C(=O)N[C@@H](CCSC)C(=O)N[C@@H](C)C(=O)N[C@H](C(=O)N[C@@H](CCCCN)C(=O)N[C@@H](CCCCN)C(=O)N[C@@H](Cc1ccc(O)cc1)C(=O)N[C@@H](CC(C)C)C(=O)N[C@@H](C)C(=O)N[C@@H](C)C(=O)N[C@H](C(=O)N[C@@H](CC(C)C)C(N)=O)C(C)C)C(C)C)[C@@H](C)O [PACAP27] | resistant to cleavage | cleaved at longer time points |
| CC[C@H](C)[C@H](NC(=O)[C@H](CO)NC(=O)[C@H](CC(N)=O)NC(=O)[C@H](CC(C)C)NC(=O)[C@H](Cc1ccc(O)cc1)NC(=O)[C@H](CCCCN)NC(=O)[C@H](CCCCN)NC(=O)[C@@H](NC(=O)[C@H](C)NC(=O)[C@H](CCSC)NC(=O)[C@H](CCC(N)=O)NC(=O)[C@H](CCCCN)NC(=O)[C@H](CCCN=C(N)N)NC(=O)[C@H](CC(C)C)NC(=O)[C@H](CCCN=C(N)N)NC(=O)[C@@H](NC(=O)[C@H](Cc1ccc(O)cc1)NC(=O)[C@H](CC(N)=O)NC(=O)[C@H](CC(=O)O)NC(=O)[C@@H](NC(=O)[C@H](Cc1ccccc1)NC(=O)[C@@H](NC(=O)[C@H](C)NC(=O)[C@H](CC(=O)O)NC(=O)[C@H](CO)NC(=O)[C@@H](N)Cc1c[nH]cn1)C(C)C)[C@@H](C)O)[C@@H](C)O)C(C)C)C(=O)N[C@@H](CC(C)C)C(=O)N[C@@H](CC(N)=O)C(N)=O [VIP] | resistant to cleavage | cleaved at longer time points |
